Experimental findings from US20260022142A1, “MACROCYCLIC IMMUNOMODULATORS” (Bristol-Myers Squibb Company, priority 2022, published 2026) are described below.

Molecules are shown by their SMILES. Bridge positions count the residues as written; N and C are the ends. Square brackets hold non-standard residues; d marks the D form. Peptide text beside a SMILES is read from it. * marks the point of attachment. Bip = N[C@@H](Cc1ccc(-c2ccccc2)cc1)C(=O)O; Phe(3-Me) = Cc1cccc(C[C@H](N)C(=O)O)c1; Cha = N[C@@H](CC1CCCCC1)C(=O)O; Carboxymethyl = O=C(O)C*; Orn = NCCC[C@H](N)C(=O)O; Aun = NCCCCCCCCCCC(=O)O; Dab = NCC[C@H](N)C(=O)O; Dap = NC[C@H](N)C(=O)O; AEEA = NCCOCCOCC(=O)O

T1 sequence (Q15116 25-288): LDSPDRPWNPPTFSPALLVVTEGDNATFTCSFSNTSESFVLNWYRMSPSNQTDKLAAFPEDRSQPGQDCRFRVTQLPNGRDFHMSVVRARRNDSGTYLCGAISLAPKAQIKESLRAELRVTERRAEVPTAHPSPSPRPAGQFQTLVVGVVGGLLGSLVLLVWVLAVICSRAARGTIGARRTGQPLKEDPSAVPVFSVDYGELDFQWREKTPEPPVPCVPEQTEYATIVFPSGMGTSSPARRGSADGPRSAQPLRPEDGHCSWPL

This experiment has as its target T1, PD-1/PD-L1 interaction (PE-labeled human PD-L1-Ig binding to Jurkat cell line over-expressing human PD-1) (Homo sapiens, UniProt Q15116).
T1 construct: expressed in transfected cells; host or cells: Jurkat
The experiment can be described thus: Jurkat-PD-1 Cell Binding High-Content Screening Assay (CBA). In kind it is cell-based. The following applies: Jurkat cell line over-expressing human PD-1; PE-labeled PD-L1-Ig 20 nM final; read-out: Jurkat hPD1-PDL1 IC50. In a few lines:
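Binding of fluorescent PD-L1-Ig (phycoerythrin on Ig tag, 20 nM final, 1 h) measured by high-content imaging of fixed, Hoechst-counterstained Jurkat-hPD-1 cells. Compound added 2 h at 37° C beforehand, in DMEM with 10% fetal calf serum.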
By IC50 is commonly meant the point on the concentration scale where inhibition reaches its midpoint. For `CC(C)C[C@H]1NC(=O)[C@H](CCCN)NC(=O)[C@H](C(C)C)NC(=O)[C@H](Cc2ccc(-c3ccccc3)cc2)NC(=O)[C@H](C(C)C)NC(=O)[C@H](Cc2c[nH]c3ccccc23)NC(=O)[C@H](CC(=O)O)NC(=O)[C@H](Cc2ccc(OCC(=O)O)cc2)NC(=O)[C@H](CN)NC(=O)CSC[C@@H](C(=O)NCCOCCOCC(=O)N[C@@H](CCC(=O)O)C(=O)NCCCCCCCCCCC(=O)O)NC(=O)[C@H]([C@@H](C)O)NC(=O)[C@H](C(C)C)NC(=O)[C@H](CC2CCCCC2)NC(=O)[C@H](Cc2cnc[nH]2)NC1=O` [Compound 1099] ({CH2CO}-[Dap]Y(Carboxymethyl)DWV[Bip]V[Orn][dL]H[Cha]VTC[AEEA]E[Aun]-OH; thioether N-14), the IC50 is 13.8 nM. Regarding `CC(C)C[C@H]1NC(=O)[C@H](CCCN)NC(=O)[C@H](C(C)C)NC(=O)[C@H](Cc2ccc(-c3ccccc3)cc2)NC(=O)[C@H](C(C)C)NC(=O)[C@H](Cc2c[nH]c3ccccc23)NC(=O)[C@H](CC(=O)O)NC(=O)[C@H](Cc2ccc(OCC(=O)O)cc2)NC(=O)[C@H](CN)NC(=O)CSC[C@@H](C(=O)NCCOCCOCC(=O)NCCCCCCCCCCC(=O)O)NC(=O)[C@H]([C@@H](C)O)NC(=O)[C@H](C(C)C)NC(=O)[C@H](CC2CCCCC2)NC(=O)[C@H](Cc2cnc[nH]2)NC1=O` [Compound 1100] ({CH2CO}-[Dap]Y(Carboxymethyl)DWV[Bip]V[Orn][dL]H[Cha]VTC[AEEA][Aun]-OH; thioether N-14), the IC50 came to 8.8 nM. As for `Cc1cccc(C[C@@H]2NC(=O)[C@H](CC(=O)O)NC(=O)[C@H](Cc3ccc(OCC(=O)O)cc3)NC(=O)[C@H](CN)NC(=O)CSC[C@@H](C(=O)N[C@@H](CCN)C(=O)NCCCCCCCCCCC(=O)O)NC(=O)[C@H]([C@@H](C)O)NC(=O)[C@H](C(C)C)NC(=O)[C@H](CC3CCCCC3)NC(=O)[C@H](Cc3cnc[nH]3)NC(=O)[C@@H](CC(C)C)NC(=O)[C@H](CCCN)NC(=O)[C@H](C(C)C)NC(=O)[C@H](Cc3ccc(-c4ccccc4)cc3)NC(=O)[C@H](C(C)C)NC2=O)c1` [Compound 1101] ({CH2CO}-[Dap]Y(Carboxymethyl)D[Phe(3-Me)]V[Bip]V[Orn][dL]H[Cha]VTC[Dab][Aun]-OH; thioether N-14), the figure is 69.6 nM; as for `Cc1cccc(C[C@@H]2NC(=O)[C@H](CC(=O)O)NC(=O)[C@H](Cc3ccc(OCC(=O)O)cc3)NC(=O)[C@H](CN)NC(=O)CSC[C@@H](C(=O)N[C@@H](C)C(=O)N[C@@H](CCC(=O)O)C(=O)NCCCCCCCCCCC(=O)O)NC(=O)[C@H]([C@@H](C)O)NC(=O)[C@H](C(C)C)NC(=O)[C@H](CC3CCCCC3)NC(=O)[C@H](Cc3cnc[nH]3)NC(=O)[C@@H](CC(C)C)NC(=O)[C@H](CCCN)NC(=O)[C@H](C(C)C)NC(=O)[C@H](Cc3ccc(-c4ccccc4)cc3)NC(=O)[C@H](C(C)C)NC2=O)c1` [Compound 1103] ({CH2CO}-[Dap]Y(Carboxymethyl)D[Phe(3-Me)]V[Bip]V[Orn][dL]H[Cha]VTCAE[Aun]-OH; thioether N-14), 29.1 nM.

Consider `CC(C)C[C@H]1NC(=O)[C@H](CCCN)NC(=O)[C@H](C(C)C)NC(=O)[C@H](Cc2ccc(-c3ccccc3)cc2)NC(=O)[C@H](C(C)C)NC(=O)[C@H](Cc2c[nH]c3ccccc23)NC(=O)[C@H](CC(=O)O)NC(=O)[C@H](Cc2ccc(OCC(=O)O)cc2)NC(=O)[C@H](CN)NC(=O)CSC[C@@H](C(=O)NCCOCCOCC(=O)N[C@@H](CC(=O)O)C(=O)NCCCCCCCCCCC(=O)O)NC(=O)[C@H]([C@@H](C)O)NC(=O)[C@H](C(C)C)NC(=O)[C@H](CC2CCCCC2)NC(=O)[C@H](Cc2cnc[nH]2)NC1=O` [Compound 1105] ({CH2CO}-[Dap]Y(Carboxymethyl)DWV[Bip]V[Orn][dL]H[Cha]VTC[AEEA]D[Aun]-OH; thioether N-14), for which the IC50 is 23 nM.

As to `Cc1cccc(C[C@@H]2NC(=O)[C@H](CC(=O)O)NC(=O)[C@H](Cc3ccc(OCC(=O)O)cc3)NC(=O)[C@H](CN)NC(=O)CSC[C@@H](C(=O)N[C@@H](CCC(=O)O)C(=O)NCC(=O)NCCCCCCCCCCC(=O)O)NC(=O)[C@H]([C@@H](C)O)NC(=O)[C@H](C(C)C)NC(=O)[C@H](CC3CCCCC3)NC(=O)[C@H](Cc3cnc[nH]3)NC(=O)[C@@H](CC(C)C)NC(=O)[C@H](CCCN)NC(=O)[C@H](C(C)C)NC(=O)[C@H](Cc3ccc(-c4ccccc4)cc3)NC(=O)[C@H](C(C)C)NC2=O)c1` [Compound 1106] ({CH2CO}-[Dap]Y(Carboxymethyl)D[Phe(3-Me)]V[Bip]V[Orn][dL]H[Cha]VTCEG[Aun]-OH; thioether N-14), the IC50 was determined as 26.5 nM. As to `Cc1cccc(C[C@@H]2NC(=O)[C@H](CC(=O)O)NC(=O)[C@H](Cc3ccc(OCC(=O)O)cc3)NC(=O)[C@H](CN)NC(=O)CSC[C@@H](C(=O)N[C@@H](CC(=O)O)C(=O)NCCCCCCCCCCC(=O)O)NC(=O)[C@H]([C@@H](C)O)NC(=O)[C@H](C(C)C)NC(=O)[C@H](CC3CCCCC3)NC(=O)[C@H](Cc3cnc[nH]3)NC(=O)[C@@H](CC(C)C)NC(=O)[C@H](CCCN)NC(=O)[C@H](C(C)C)NC(=O)[C@H](Cc3ccc(-c4ccccc4)cc3)NC(=O)[C@H](C(C)C)NC2=O)c1` [Compound 1107] ({CH2CO}-[Dap]Y(Carboxymethyl)D[Phe(3-Me)]V[Bip]V[Orn][dL]H[Cha]VTCD[Aun]-OH; thioether N-14), the IC50 was 35.8 nM. The same measure for `Cc1cccc(C[C@@H]2NC(=O)[C@H](CC(=O)O)NC(=O)[C@H](Cc3ccc(OCC(=O)O)cc3)NC(=O)[C@H](CN)NC(=O)CSC[C@@H](C(=O)N[C@@H](CCC(=O)O)C(=O)NCCCCCCCCCCC(=O)O)NC(=O)[C@H]([C@@H](C)O)NC(=O)[C@H](C(C)C)NC(=O)[C@H](CC3CCCCC3)NC(=O)[C@H](Cc3cnc[nH]3)NC(=O)[C@@H](CC(C)C)NC(=O)[C@H](CCCN)NC(=O)[C@H](C(C)C)NC(=O)[C@H](Cc3ccc(-c4ccccc4)cc3)NC(=O)[C@H](C(C)C)NC2=O)c1` [Compound 1108] ({CH2CO}-[Dap]Y(Carboxymethyl)D[Phe(3-Me)]V[Bip]V[Orn][dL]H[Cha]VTCE[Aun]-OH; thioether N-14): 27 nM; for `Cc1cccc(C[C@@H]2NC(=O)[C@H](CC(=O)O)NC(=O)[C@H](Cc3ccc(OCC(=O)O)cc3)NC(=O)[C@H](CN)NC(=O)CSC[C@@H](C(=O)N[C@@H](CCCN)C(=O)NCCCCCCCCCCC(=O)O)NC(=O)[C@H]([C@@H](C)O)NC(=O)[C@H](C(C)C)NC(=O)[C@H](CC3CCCCC3)NC(=O)[C@H](Cc3cnc[nH]3)NC(=O)[C@@H](CC(C)C)NC(=O)[C@H](CCCN)NC(=O)[C@H](C(C)C)NC(=O)[C@H](Cc3ccc(-c4ccccc4)cc3)NC(=O)[C@H](C(C)C)NC2=O)c1` [Compound 1109] ({CH2CO}-[Dap]Y(Carboxymethyl)D[Phe(3-Me)]V[Bip]V[Orn][dL]H[Cha]VTC[Orn][Aun]-OH; thioether N-14): 37.6 nM; for `Cc1cccc(C[C@@H]2NC(=O)[C@H](CC(=O)O)NC(=O)[C@H](Cc3ccc(OCC(=O)O)cc3)NC(=O)[C@H](CN)NC(=O)CSC[C@@H](C(=O)N[C@@H](CCCCN)C(=O)NCCCCCCCCCCC(=O)O)NC(=O)[C@H]([C@@H](C)O)NC(=O)[C@H](C(C)C)NC(=O)[C@H](CC3CCCCC3)NC(=O)[C@H](Cc3cnc[nH]3)NC(=O)[C@@H](CC(C)C)NC(=O)[C@H](CCCN)NC(=O)[C@H](C(C)C)NC(=O)[C@H](Cc3ccc(-c4ccccc4)cc3)NC(=O)[C@H](C(C)C)NC2=O)c1` [Compound 1110] ({CH2CO}-[Dap]Y(Carboxymethyl)D[Phe(3-Me)]V[Bip]V[Orn][dL]H[Cha]VTCK[Aun]-OH; thioether N-14): 33 nM.

Turning to `Cc1cccc(C[C@@H]2NC(=O)[C@H](CC(=O)O)NC(=O)[C@H](Cc3ccc(OCC(=O)O)cc3)NC(=O)[C@H](CN)NC(=O)CSC[C@@H](C(=O)N[C@@H](C)C(=O)N[C@@H](CN)C(=O)NCCCCCCCCCCC(=O)O)NC(=O)[C@H]([C@@H](C)O)NC(=O)[C@H](C(C)C)NC(=O)[C@H](CC3CCCCC3)NC(=O)[C@H](Cc3cnc[nH]3)NC(=O)[C@@H](CC(C)C)NC(=O)[C@H](CCCN)NC(=O)[C@H](C(C)C)NC(=O)[C@H](Cc3ccc(-c4ccccc4)cc3)NC(=O)[C@H](C(C)C)NC2=O)c1` [Compound 1111] ({CH2CO}-[Dap]Y(Carboxymethyl)D[Phe(3-Me)]V[Bip]V[Orn][dL]H[Cha]VTCA[Dap][Aun]-OH; thioether N-14), the IC50 was determined as 64.2 nM. Regarding `Cc1cccc(C[C@@H]2NC(=O)[C@H](CC(=O)O)NC(=O)[C@H](Cc3ccc(OCC(=O)O)cc3)NC(=O)[C@H](CN)NC(=O)CSC[C@@H](C(=O)N[C@@H](C)C(=O)N[C@@H](CCN)C(=O)NCCCCCCCCCCC(=O)O)NC(=O)[C@H]([C@@H](C)O)NC(=O)[C@H](C(C)C)NC(=O)[C@H](CC3CCCCC3)NC(=O)[C@H](Cc3cnc[nH]3)NC(=O)[C@@H](CC(C)C)NC(=O)[C@H](CCCN)NC(=O)[C@H](C(C)C)NC(=O)[C@H](Cc3ccc(-c4ccccc4)cc3)NC(=O)[C@H](C(C)C)NC2=O)c1` [Compound 1112] ({CH2CO}-[Dap]Y(Carboxymethyl)D[Phe(3-Me)]V[Bip]V[Orn][dL]H[Cha]VTCA[Dab][Aun]-OH; thioether N-14), the IC50 was found to be 18.2 nM. Turning to `Cc1cccc(C[C@@H]2NC(=O)[C@H](CC(=O)O)NC(=O)[C@H](Cc3ccc(OCC(=O)O)cc3)NC(=O)[C@H](CN)NC(=O)CSC[C@@H](C(=O)N[C@@H](C)C(=O)N[C@@H](CCCN)C(=O)NCCCCCCCCCCC(=O)O)NC(=O)[C@H]([C@@H](C)O)NC(=O)[C@H](C(C)C)NC(=O)[C@H](CC3CCCCC3)NC(=O)[C@H](Cc3cnc[nH]3)NC(=O)[C@@H](CC(C)C)NC(=O)[C@H](CCCN)NC(=O)[C@H](C(C)C)NC(=O)[C@H](Cc3ccc(-c4ccccc4)cc3)NC(=O)[C@H](C(C)C)NC2=O)c1` [Compound 1113] ({CH2CO}-[Dap]Y(Carboxymethyl)D[Phe(3-Me)]V[Bip]V[Orn][dL]H[Cha]VTCA[Orn][Aun]-OH; thioether N-14), the IC50 was 30.2 nM.
